Assay results as given in patent publication US20230146455A1, “TREATMENT OF INFLAMMATORY DISEASES WITH PEPTIDES AND PHARMACEUTICAL COMPOSITIONS” (Yuyu Pharma, Inc., priority 2020, published 2023).
Where “and” joins values, the source holds several entries; their conditions need not be identical. Identical values can stand only once. Like-named read-outs stand apart in the source and are kept apart here. Each block holds one compound with its values, some of them ahead of it. Where a SMILES comes first, the peptide text is derived from it. [ ]: non-standard residue; d: D form. Hyp = O=C(O)[C@@H]1C[C@@H](O)CN1

How the values were obtained:
[1] = tested on: rats with ELGE dry eye condition; experiment: Corneal damage induced by ELGE in rats; format: in vivo, rat
Caco-2 cells monolayer = experiment: Apparent permeability, 21 day cultured Caco-2 cell monolayer, bi-directional (Example 7); format: in vitro ADME
Procedure: (§1) 10 mM stock solution of test compound was prepared in DMSO. 10 mM stock was diluted with 100% DMSO to prepare 0.2 mM, 0.2 mM stock was diluted with HBSS buffer to a final concentration of 2 μM.
(§2) Add 250 μL of DMEM to the basal compartment of 96 well multi-screen Caco-2 plates and seed 12000 cells/well (0.16×10^6 cells/ml) in all the apical wells required and 2 wells with only media as blank without cells. Place the Caco-2 plate in CO2 incubator at 37° C. for proliferation of cells.
(§3) The utilized media was replenished every alternate day by fresh medium. On 21st day, utilized medium was removed and washed twice with HBSS Buffer and incubated with HBSS buffer 30 min in incubator and initiated the assay.
(§4) 75 μL of test compound was added to apical wells and 250 μL of HBSS buffer with 1% DMSO was added to basal wells. Samples were collected at 120 min and processed as stated below.
(§5) 250 μL of test compound was added to basal wells and 75 μL of HBSS buffer with 1% DMSO was added to apical wells. Samples were collected at 120 min and processed as stated below.
(§6) Single point calibration curve in HBSS buffer was used. 100 μL of supernatant was diluted with 200 μL of water and submitted for LC-MS/MS analysis.
(§7) Efflux ratio=Papp of basal to apical samples/Papp of apical to basal samples
(§8) Recovery: {(dQ of Apical+dQ of Basal)/Standard dQ}*100

[2] = as above; format: in vitro ADME; details: Caco-2, 2 μM, 120 minutes; for recovery at 120 min, 2 μM: human
Procedure: as §1, §2, §3, §4, §5, §6, §7, §8

[3] = tested on: IL-6 release in human PBMCs stimulated by poly(I:C), LPS or PMA/Ionomycin; experiment: IL-6 ELISA in stimulated human PBMCs, 2nd pilot study (Example 8); format: cell-based; details: for IL-6 (ELISA), individual wells / IL-6 (ELISA), Mean: 24 hr
Procedure: Human PBMCs frozen in a cryopreserve was thawed, washed with Hank's Balanced Salt Solution containing 10% Fetal bovine serum, and seeded onto a 24-well plate at a density of 1×10^6 cells/well with culture RPMI media containing 10% Fetal bovine serum in growth media in a 24 well plate for 12, 24, and 48 hrs and maintained at 37° C. in an atmosphere of 95% air and 5% CO2.
Human PBMCs was pretreated with a test compound; YDE-011 at 30 uM, 1 μM for 2 h before stimulation. An equal volume of 0.5% DMSO was used as a vehicle control. […] The supernatants from treated cells were harvested at 24 h and placed in 96 well for Human IL-6 ELISAS measurement according to the manufacturer's instructions (Invitrogen, CA, USA). […]
IL-6 measurement was performed by the sandwich ELISA method. The capture antibody was coated on a 96-well plate (Corning™ Costar™ 9018, NY, USA) at 100 ul/well and incubated overnight at 4° C. The interaction was blocked at room temperature for 2 h to prevent non-specific binding of the antigen-antibody. Then, the plate was incubated overnight at 4° C. with 1:200 diluted cell supernatants and standard dilute serial dilutions at 100 ul/well. Detection antibody was dispensed into the plate at 100 ul/well, and then allowed to incubate at a room temperature for 1 h. Finally, streptavidin-HRP (100 ul/well) was incubated at room temperature for 30 min. […] The sample reading was measured at 450 nm wavelength and 570 nm, and the quantification of the sample was converted as concentration (ng/ml) based on the standard curve extrapolation.

Classification (Caco-2 Permeability) (Caco-2 cells monolayer): LOW
recovery ([2]; read-out: A to B % Recovery): 34%
recovery ([2]; read-out: B to A % Recovery): 67.2%
SMILES: CC(C)C[C@H](NC(=O)[C@H](CCC(N)=O)NC(=O)CNC(=O)[C@@H]1C[C@@H](O)CN1)C(=O)NCC(=O)O [YDE-043] (H-[Hyp]GQLG-OH; N-terminus and C-terminus assumed)
corneal damage induced by ELGE (in words) [1]: effective in improving corneal damaged induced by ELGE

Classification (Caco-2 Permeability) (Caco-2 cells monolayer): LOW
recovery at 120 min, 2 μM ([2]; read-out: A to B % Recovery): 15%
recovery at 120 min, 2 μM ([2]; read-out: B to A % Recovery): 88.5%
SMILES: CC(C)C[C@H](NC(=O)CNC(=O)[C@H](CC(C)C)NC(=O)[C@H](CCC(N)=O)NC(=O)CNC(=O)[C@@H]1C[C@@H](O)CN1)C(=O)N[C@@H](C)C(=O)NCC(=O)N1CCC[C@H]1C(=O)N[C@@H](CCCCN)C(=O)O [YDE-011] (H-[Hyp]GQLGLAGPK-OH)
IL-6 induction in PBMCs (in words) ([3]; 1 uM, poly I:C, LPS or PMA/Ionomycin): effectively and significantly reduced IL-6 induction
IL-6 (ELISA), individual wells ([3]; PBMC + LPS(5 ug/ml) + YDE-011 1 uM): 14532.1 and 12561.2
IL-6 (ELISA), Mean ([3]; PBMC + LPS(5 ug/ml) + YDE-011 1 uM, LPS alone Mean 26093.3): 13546.7
IL-6 (ELISA), individual wells ([3]; PBMC + LPS(5 ug/ml) + YDE-011 30 uM): 23199.5 and 18310.8
IL-6 (ELISA), Mean ([3]; PBMC + LPS(5 ug/ml) + YDE-011 30 uM, LPS alone Mean 26093.3): 20755.2
IL-6 (ELISA), individual wells ([3]; PBMC + PMA(1 ng/ml)/Ionomycin(0.5 ug/ml) + YDE-011 1 uM): 2817.2 and 3828.2
IL-6 (ELISA), Mean ([3]; PBMC + PMA(1 ng/ml)/Ionomycin(0.5 ug/ml) + YDE-011 1 uM, stimulant alone Mean 4075.5): 3322.7
IL-6 (ELISA), individual wells ([3]; PBMC + PMA(1 ng/ml)/Ionomycin(0.5 ug/ml) + YDE-011 30 uM): 3114.6 and 3025
IL-6 (ELISA), Mean ([3]; PBMC + PMA(1 ng/ml)/Ionomycin(0.5 ug/ml) + YDE-011 30 uM, stimulant alone Mean 4075.5): 3069.8
IL-6 (ELISA), individual wells ([3]; PBMC + Poly I:C(25 ug/ml) + YDE-011 1 uM): 13701 and 12585.1
IL-6 (ELISA), Mean ([3]; PBMC + Poly I:C(25 ug/ml) + YDE-011 1 uM, Poly I:C alone Mean 21429.5): 13143.1
IL-6 (ELISA), individual wells ([3]; PBMC + Poly I:C(25 ug/ml) + YDE-011 30 uM): 39230.7 and 30634.7
IL-6 (ELISA), Mean ([3]; PBMC + Poly I:C(25 ug/ml) + YDE-011 30 uM, Poly I:C alone Mean 21429.5): 34932.7
IL-6 induction in PBMCs (in words) ([3]; higher concentration): diminished at a higher concentration
IL-6 levels induced by LPS or poly I:C (in words) ([3]; pilot studies): significantly reduced IL-6 levels induced by LPS or poly I:C
